# Test results published in US8420888B2, “Chloroplast transit peptides for efficient targeting of DMO and uses thereof” (Monsanto Technology LLC, priority 2007, dated 2013).
# Tested on: soybean plants
# Assay: Pre- and post-emergence dicamba tolerance of transgenic soybean
# Format: in vivo
# Settings: wild type soybean; dicamba at post-V3 stage at 1 lb/a rate
# Description: Several DMO expression units were constructed by operably linking one of each various promoters, CTPs, DMO variants, and 3′UTRs to obtain efficient DMO expression units for product development.
structure (smiles),measurement,value
"COc1c(Cl)ccc(Cl)c1C(=O)O [dicamba, 3,6-dichloro-o-anisic acid]",injury rate,60%
